Reference: ChEMBL document CHEMBL2040728, “New substituted 4H-chromenes as anticancer agents” (Bioorg Med Chem Lett, 2012)

How the values were obtained:
Format in all cases: functional, cell-based
[1] = Antiproliferative activity against human paclitaxel-resistant PC3-TxR cells after 96 hrs by SRB assay
[2] = Antiproliferative activity against human WM164 cells after 48 hrs by SRB assay; conditions: WM164, 48 h
LNCaP = assay: Antiproliferative activity against human LNCAP cells after 96 hrs by SRB assay
PC-3 = assay: Antiproliferative activity against human PC3 cells after 96 hrs by SRB assay; conditions: PC-3, 96 h
A-375 = assay: Antiproliferative activity against human A375 cells after 48 hrs by SRB assay; conditions: A-375, 48 h

IC50 (LNCaP) [µM] | IC50 (PC-3) [µM] | IC50 (A-375) [µM] | SMILES | IC50 [1] [µM] | IC50 [2] [µM]
 |  |  | COc1cc2c(c(OC)c1OC)-c1ccc(OC)c(=O)cc1[C@@H](NC(C)=O)CC2 [COLCHICINE] | 0.02 | 0.03
0.76 | 0.43 | 0.44 | COc1ccc(C2C(C#N)=C(N)Oc3cc(N(C)C)ccc32)c2ccccc12 (configuration not stated) | 0.53 | 0.49
